{"source": "patent US20130178534A1", "about": "“N-Nonanoylvanillylamine as an agent for reducing the appetite, as an agent for imparting a feeling of fullness and as a mood enhancer, and corresponding substance mixtures, orally consumable products and methods” (Symrise AG, priority 2012, published 2013)", "key": {"SH-SY5Y cells [1]": {"system": "SH-SY5Y cells", "assay": "Release of serotonin by SH-SY5Y cells (Example 3)", "format": "cell-based, Human", "settings": "for T/C [%] release of serotonin: normalised to control", "protocol": "(§1) Human neuroblastoma cells (SH-SY5Y, ATCC number CRL-2266) are used as the cell model. Cultivation takes place at 37° C. and 5% CO2 content with a mixture consisting of equal parts of Eagle's Minimum Essential Medium (MEM) and F12 medium (in each case with 10% FBS and 1% penicillin/streptomycin). For measurement of the release of dopamine and serotonin, the cells are harvested with trypsin and, after a vitality test by trypan blue staining, are sown in a defined cell number in 35 mm cell culture dishes.\nAfter stimulation of 1.25*10^6 human neuroblastoma cells (SH-SY5Y) for 3 minutes with 300 μl of Krebs-Ringer HEPES buffer, 0.1% ascorbic acid, pH 6.2, with or without addition of N-nonanoylvanillylamine (wherein in the case of addition of N-nonanoylvanillylamine, concentrations of 0.01 μM, 0.1 μM, 1 μM and 10 μM are established in the Krebs-Ringer HEPES buffer), the serotonin content is determined by means of an enzyme-based detection method (serotonin ELISA sensitive, […], Hamburg, Germany). The cells are lysed with a buffer containing sodium lauryl sarcosinate, and the DNA content is determined by means of a NanoQuant plate (Tecan, Ménnendorf, Switzerland) for normalisation of the serotonin release."}, "SH-SY5Y cells [2]": {"system": "SH-SY5Y cells", "assay": "Release of dopamine by SH-SY5Y cells with N-nonanoylvanillylamine and a TRPV1 inhibitor (Example 2)", "format": "cell-based, Human", "protocol": "as §1\nAfter stimulation of 1.25*10^6 human neuroblastoma cells (SH-SY5Y) for 3 minutes with 350 μl of Krebs-Ringer HEPES buffer, pH 5, with or without addition of 1 μM N-nonanolyvanillylamine (wherein in the case of addition of N-nonanoylvanillylamine, a concentration of 1 μM is established in the Krebs-Ringer HEPES buffer) in combination with different application-relevant amounts of the selective TRPV1 inhibitor trans-4-tert-butylcyclohexanol (so that concentrations of 25, 50 and 80 μM of trans-4-tert-butylcyclo-hexanol are established in the Krebs-Ringer HEPES buffer), the supernatant is acidified with 1 N HCl and the dopamine content is determined by means of an enzyme-based detection method (dopamine ELISA, DLD Diagnostica, Hamburg, Germany). The cells are lysed with a buffer containing sodium lauryl sarcosinate, and the DNA content is determined by means of a NanoQuant plate (Tecan, Ménnendorf, Switzerland) for normalisation of the dopamine release. For comparison purposes, the tests were repeated without the addition of N-nonanoylvanillylamine."}, "SH-SY5Y cells [3]": {"system": "SH-SY5Y cells", "assay": "Release of serotonin by SH-SY5Y cells with N-nonanoylvanillylamine and a TRPV1 inhibitor (Example 4)", "format": "cell-based, Human", "protocol": "as §1\nAfter stimulation of 1.25*10^6 human neuroblastoma cells (SH-SY5Y) for 3 minutes with 300 μl of Krebs-Ringer HEPES buffer (0.1% ascorbic acid, pH 6.2), with or without addition of N-nonanoylvanillylamine (so that a concentration of 1 μM N-nonanoylvanillylamine is established in the Krebs-Ringer HEPES buffer) in combination with different application-relevant amounts of the selective TRPV1 inhibitor trans-4-tert-butylcyclohexanol, the serotonin content is determined by means of an enzyme-based detection method (serotonin ELISA sensitive, DLD Diagnostica, Hamburg, Germany). The cells are lysed with a buffer containing sodium lauryl sarcosinate, and the DNA content is determined by means of a NanoQuant plate in a plate reader (Tecan, Ménnendorf, Switzerland) for normalisation of the serotonin release."}, "[4]": {"settings": "cited from earlier work"}, "SH-SY5Y cells [5]": {"system": "SH-SY5Y cells", "assay": "Release of dopamine by SH-SY5Y cells (Example 1)", "format": "cell-based, Human", "settings": "for T/C [%] release of dopamine: 3 minutes, normalised to control", "protocol": "as §1\nMethod for measuring the release of dopamine:\nAfter stimulation of 1.25*10^6 human neuroblastoma cells (SH-SY5Y) for 3 minutes with 350 μl of Krebs-Ringer HEPES buffer, pH 5, with or without addition of N-nonanoylvanillylamine (wherein in the case of addition of N-nonanoylvanillylamine, concentrations of 0.1 μM, 1 μM and 10 μM are established in the Krebs-Ringer HEPES buffer), the supernatant is acidified with 1 N HCl and the dopamine content is determined by means of an enzyme-based detection method (dopamine ELISA, DLD Diagnostica, Hamburg, Germany). The cells are lysed with a buffer containing sodium lauryl sarcosinate, and the DNA content is determined by means of a NanoQuant plate (Tecan, Ménnendorf, Switzerland) for normalisation of the dopamine release. In the case of an ethanol control (EtOH control), no N-nonanoylvanillylamine is added to the Krebs-Ringer HEPES buffer, but ethanol is added to the buffer so that a 0.1% ethanolic Krebs-Ringer HEPES buffer solution is obtained. In the case of the positive control, acetylcholine is used instead of the N-nonanoylvanillylamine, a concentration of 100 μM acetylcholine being established in the Krebs-Ringer HEPES buffer."}, "[6]": {"settings": "Kollmannsberger 2007; cited from earlier work"}, "[7]": {"settings": "25 μM alone, without N-nonanoylvanillylamine"}, "[8]": {"settings": "50 μM alone, without N-nonanoylvanillylamine"}, "[9]": {"settings": "80 μM alone, without N-nonanoylvanillylamine"}, "[10]": {"settings": "N-nonanoylvanillylamine 1 μM + 25 μM trans-4-tert-butylcyclohexanol"}, "[11]": {"settings": "N-nonanoylvanillylamine 1 μM + 50 μM trans-4-tert-butylcyclohexanol"}, "[12]": {"settings": "N-nonanoylvanillylamine 1 μM + 80 μM trans-4-tert-butylcyclohexanol"}, "[13]": {"settings": "N-nonanoylvanillylamine 1 μM alone"}}, "data": [{"smiles": "[Cl-].[K+]", "note": "[KCl, potassium chloride, reference compound]", "values": [{"measurement": "T/C [%] release of serotonin", "setting": "SH-SY5Y cells [1]; 50 mM (positive control)", "result": 153.48, "unit": "%"}]}, {"smiles": "CC(C)(C)[C@H]1CC[C@H](O)CC1", "note": "[trans-4-tert-butylcyclohexanol, reference compound]", "values": [{"measurement": "T/C [%] release of dopamine", "setting": "SH-SY5Y cells [2]; [7]", "result": 84.47, "unit": "%"}, {"measurement": "T/C [%] release of dopamine", "setting": "SH-SY5Y cells [2]; [8]", "result": 38.19, "unit": "%"}, {"measurement": "T/C [%] release of dopamine", "setting": "SH-SY5Y cells [2]; [9]", "result": 63.53, "unit": "%"}, {"measurement": "T/C [%] release of serotonin", "setting": "SH-SY5Y cells [3]; [7]", "result": 91.07, "unit": "%"}, {"measurement": "T/C [%] release of serotonin", "setting": "SH-SY5Y cells [3]; [8]", "result": 101.39, "unit": "%"}, {"measurement": "T/C [%] release of serotonin", "setting": "SH-SY5Y cells [3]; [9]", "result": 84.129, "unit": "%"}, {"measurement": "T/C [%] release of serotonin", "setting": "SH-SY5Y cells [3]; 200 μM alone, without N-nonanoylvanillylamine", "result": 110.99, "unit": "%"}]}, {"smiles": "CCCCCCCCC(=O)NCc1ccc(O)c(OC)c1", "note": "[N-Nonanoylvanillylamine]", "values": [{"measurement": "increase in the amount of dopamine released", "setting": "SH-SY5Y cells [2]; 1 μM", "result": "five-fold increase"}, {"measurement": "influence of simultaneous stimulation with TRPV1 inhibitor trans-4-tert-butylcyclohexanol on the dopamine release", "setting": "SH-SY5Y cells [2]; 1 μM N-nonanoylvanillylamine, inhibitor 25, 50 and 80 μM", "result": "not significantly influenced"}, {"measurement": "T/C [%] release of dopamine", "setting": "SH-SY5Y cells [2]; [10]", "result": 433.55, "unit": "%"}, {"measurement": "T/C [%] release of dopamine", "setting": "SH-SY5Y cells [2]; [11]", "result": 456.80, "unit": "%"}, {"measurement": "T/C [%] release of dopamine", "setting": "SH-SY5Y cells [2]; [12]", "result": 422.48, "unit": "%"}, {"measurement": "T/C [%] release of dopamine", "setting": "SH-SY5Y cells [2]; [13]", "result": 501.20, "unit": "%"}, {"measurement": "T/C [%] release of serotonin", "setting": "SH-SY5Y cells [1]; 0.01 μM, 3 minutes", "result": 191.35, "unit": "%"}, {"measurement": "amount of serotonin released by SH-SY5Y cells", "setting": "SH-SY5Y cells [1]; 0.1 μM and above, p<0.005", "result": "increases highly significantly"}, {"measurement": "T/C [%] release of serotonin", "setting": "SH-SY5Y cells [1]; 0.1 μM, 3 minutes", "result": 226.44, "unit": "%"}, {"measurement": "T/C [%] release of serotonin", "setting": "SH-SY5Y cells [1]; 1 μM, 3 minutes", "result": 272.12, "unit": "%"}, {"measurement": "T/C [%] release of serotonin", "setting": "SH-SY5Y cells [1]; 10 μM, 3 minutes", "result": 185.65, "unit": "%"}, {"measurement": "stimulating the release of serotonin in neurons, maximum, compared with the respective control", "setting": "SH-SY5Y cells [1]; concentration range 0.01 μM to 10 μM (0.003 mg/kg to 3 mg/kg)", "result": "about 270%"}, {"measurement": "EFSA safety rating", "setting": "[4]; rated in FGE.86", "result": "no safety concern"}, {"measurement": "influence of addition of TRPV1 inhibitor trans-4-tert-butylcyclohexanol on the serotonin release", "setting": "SH-SY5Y cells [3]; 1 μM N-nonanoylvanillylamine", "result": "not significantly influenced"}, {"measurement": "T/C [%] release of serotonin", "setting": "SH-SY5Y cells [3]; [10]", "result": 154.86, "unit": "%"}, {"measurement": "T/C [%] release of serotonin", "setting": "SH-SY5Y cells [3]; [11]", "result": 128.74, "unit": "%"}, {"measurement": "T/C [%] release of serotonin", "setting": "SH-SY5Y cells [3]; [12]", "result": 140.81, "unit": "%"}, {"measurement": "T/C [%] release of serotonin", "setting": "SH-SY5Y cells [3]; N-nonanoylvanillylamine 1 μM + 200 μM trans-4-tert-butylcyclohexanol", "result": 181.93, "unit": "%"}, {"measurement": "T/C [%] release of serotonin", "setting": "SH-SY5Y cells [3]; [13]", "result": 151.75, "unit": "%"}, {"measurement": "T/C [%] release of dopamine", "setting": "SH-SY5Y cells [5]; 0.1 μM", "result": 697.84, "unit": "%"}, {"measurement": "increase in the amount of dopamine released by SH-SY5Y cells", "setting": "SH-SY5Y cells [5]; 100 nM", "result": "seven-fold increase"}, {"measurement": "T/C [%] release of dopamine", "setting": "SH-SY5Y cells [5]; 1 μM", "result": 1350.94, "unit": "%"}, {"measurement": "T/C [%] release of dopamine", "setting": "SH-SY5Y cells [5]; 10 μM", "result": 1774.98, "unit": "%"}, {"measurement": "stimulating the release of dopamine, compared with the respective control", "setting": "SH-SY5Y cells [5]; approximately 0.03 mg/kg (0.1 μM)", "result": "about 700%"}, {"measurement": "detection threshold", "setting": "[6]", "result": 0.107, "unit": "mg/kg"}, {"measurement": "stimulant threshold", "setting": "[6]", "result": 0.054, "unit": "mg/kg"}]}, {"smiles": "COc1cc(CNC(=O)CCCC/C=C/C(C)C)ccc1O", "note": "[capsaicin, reference compound]", "values": [{"measurement": "rating for genotoxicity", "setting": "[4]; EFSA / Scientific Committee on Food opinion 2002", "result": "negatively rated as having genotoxic potential"}]}, {"smiles": "CC(=O)OCC[N+](C)(C)C", "note": "[Acetylcholine, acetylcholine, reference compound]", "values": [{"measurement": "T/C [%] release of dopamine", "setting": "SH-SY5Y cells [5]; 100 μM (positive control)", "result": 139.84, "unit": "%"}]}]}
